Reference: patent publication EP0251827A2, “New cyclic ether derivatives, their preparation and their use” (Sankyo Company Limited, priority 1986, dated 1988)

System: PAF-induced hypotension
Assay: Inhibition of PAF-induced hypotension
Format: in vivo, rats of the Wistar-Imamichi strain
Settings: Rattus norvegicus, iv; 50% inhibitory dose from dose-response curve for inhibition of PAF-induced hypotension; rats; read-out: Inhibition of Hypotension ID50
Experimental: The test animals employed were rats of the Wistar-Imamichi strain, each weighing between 350 and 450 g.
Under Inactin anesthesia (90 mg/kg administered intraperitoneally) the left femoral artery and vein of each test animal were cannulated to enable the arterial blood pressure to be monitored continuously and for drug administration, respectively. At intervals of about 5 minutes, each animal was given by intravenous injection 10 ng/kg of synthetic I-C16:0 PAF until a steady hypotensive response was achieved. At this time, the drug to be tested was administered by intravenous injection in doses increasing cumulatively by a factor of 4. Within I minute of this injection, a further 10 ng/kg of the IC16:0 PAF was administered. The hypotensive response to PAF was inhibited by the test drug in a dose-related manner.
The PAF was administered in the form of a solution in physiological saline containing 0.25% w/v bovine serum albumin. The test drugs were dissolved in physiological saline containing 20% v/v ethanol.
The 50% inhibitory dose (ID 50 ) was calculated from the dose-response curve constructed for the inhibition of PAF-induced hypotension.
This test was carried out using compounds of the invention, as well as the prior art compound CV-3988, disclosed in US Patent No. 4,408,052 and represented by the foregoing formula (B).

CCCCCCCCCCCCCCCCCCNC(=O)OCC(COP(=O)([O-])OCC[n+]1ccsc1)OC (stereo not shown) [CV - 3988]
ED50: 0.42 mg/kg
